ChEMBL document CHEMBL3085748, “Acetylcholinesterase inhibitors as Alzheimer therapy: from nerve toxins to neuroprotection” (Eur J Med Chem, 2013)
pIC50: −log10 of the molar value.

How the values were obtained:
Acetylcholinesterase [1] = target: T1, Acetylcholinesterase (Electrophorus electricus, UniProt O42275); test: Inhibition of electric eel acetylcholinesterase using acetylcholine chloride as substrate measured every 1 min by chemiluminescent assay
Acetylcholinesterase [2] = target: T2, Acetylcholinesterase (Bos taurus, UniProt P23795); test: Inhibition of bovine erythrocyte acetylcholinesterase using acetylthiocholine iodide as substrate after 15 mins by Ellman's method
T2 sequence (P23795 whole entry): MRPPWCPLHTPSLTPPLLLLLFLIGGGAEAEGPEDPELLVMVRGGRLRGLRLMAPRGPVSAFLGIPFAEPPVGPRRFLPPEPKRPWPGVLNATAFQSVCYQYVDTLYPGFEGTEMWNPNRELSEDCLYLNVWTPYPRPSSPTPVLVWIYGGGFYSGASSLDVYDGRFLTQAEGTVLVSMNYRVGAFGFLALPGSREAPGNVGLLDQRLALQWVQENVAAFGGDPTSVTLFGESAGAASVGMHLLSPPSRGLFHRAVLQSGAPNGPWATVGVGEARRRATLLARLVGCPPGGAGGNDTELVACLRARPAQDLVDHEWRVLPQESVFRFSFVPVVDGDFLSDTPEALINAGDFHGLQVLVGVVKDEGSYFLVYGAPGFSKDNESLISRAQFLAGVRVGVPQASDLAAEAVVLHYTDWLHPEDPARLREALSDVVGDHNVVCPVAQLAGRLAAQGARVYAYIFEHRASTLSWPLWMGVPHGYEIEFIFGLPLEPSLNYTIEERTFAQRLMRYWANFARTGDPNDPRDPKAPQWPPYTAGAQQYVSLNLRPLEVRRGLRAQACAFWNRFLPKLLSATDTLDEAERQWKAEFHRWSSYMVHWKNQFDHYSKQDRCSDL

Acetylcholinesterase [3] = target: T3, Acetylcholinesterase (Homo sapiens, UniProt P22303); test: Inhibition of acetylcholinesterase (unknown origin) by Ellman's method
Acetylcholinesterase [4] = target: T4, Acetylcholinesterase (Rattus norvegicus, UniProt P37136); test: Inhibition of rat brain AChE
T4 sequence (P37136 whole entry): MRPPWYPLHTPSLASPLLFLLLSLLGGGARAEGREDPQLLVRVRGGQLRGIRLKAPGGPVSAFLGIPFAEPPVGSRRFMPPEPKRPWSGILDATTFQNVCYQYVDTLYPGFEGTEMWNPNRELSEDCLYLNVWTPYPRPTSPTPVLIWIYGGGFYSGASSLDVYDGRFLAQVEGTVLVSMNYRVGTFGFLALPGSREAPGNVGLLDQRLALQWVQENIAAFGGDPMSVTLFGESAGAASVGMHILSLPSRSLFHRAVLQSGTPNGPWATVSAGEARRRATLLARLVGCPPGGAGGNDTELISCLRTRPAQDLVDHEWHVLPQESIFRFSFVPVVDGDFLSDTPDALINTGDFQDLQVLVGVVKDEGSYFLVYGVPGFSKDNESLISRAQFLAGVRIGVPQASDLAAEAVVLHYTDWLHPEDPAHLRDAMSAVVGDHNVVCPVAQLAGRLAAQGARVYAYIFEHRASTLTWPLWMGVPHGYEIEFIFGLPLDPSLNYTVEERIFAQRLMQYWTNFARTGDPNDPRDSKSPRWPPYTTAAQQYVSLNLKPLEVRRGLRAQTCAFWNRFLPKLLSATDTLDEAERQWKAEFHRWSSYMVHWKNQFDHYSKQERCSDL

Cholinesterase = Cholinesterase (Equus caballus, UniProt P81908); test: Inhibition of equine serum BuChE after 15 mins by spectrophotometric analysis
Acetylcholinesterase [5] = target: T1, Acetylcholinesterase; test: Inhibition of electric eel acetylcholinesterase using acetylthiocholine chloride as substrate preincubated for 15 mins followed by substrate addition measured every 1 min by spectrophotometric analysis
Acetylcholinesterase [6] = target: T3, Acetylcholinesterase; test: Inhibition of acetylcholinesterase (unknown origin)

T3 sequence (P22303 whole entry): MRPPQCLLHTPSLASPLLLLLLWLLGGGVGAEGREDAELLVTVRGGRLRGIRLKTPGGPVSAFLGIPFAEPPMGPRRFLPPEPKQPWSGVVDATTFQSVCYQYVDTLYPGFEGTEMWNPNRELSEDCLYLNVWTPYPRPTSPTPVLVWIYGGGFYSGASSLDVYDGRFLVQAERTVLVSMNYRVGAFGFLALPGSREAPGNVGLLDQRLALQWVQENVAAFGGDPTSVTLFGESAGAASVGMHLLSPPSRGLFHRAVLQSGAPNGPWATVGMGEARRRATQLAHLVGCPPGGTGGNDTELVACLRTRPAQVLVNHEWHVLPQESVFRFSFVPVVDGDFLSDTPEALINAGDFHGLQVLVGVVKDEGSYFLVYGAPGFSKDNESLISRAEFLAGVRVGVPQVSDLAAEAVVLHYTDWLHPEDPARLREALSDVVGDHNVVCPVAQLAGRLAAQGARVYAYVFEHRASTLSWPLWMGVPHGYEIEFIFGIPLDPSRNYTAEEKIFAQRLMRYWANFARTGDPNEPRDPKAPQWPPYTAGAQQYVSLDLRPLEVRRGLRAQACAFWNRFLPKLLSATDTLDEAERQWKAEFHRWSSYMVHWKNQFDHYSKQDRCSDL
T1 sequence (O42275 whole entry): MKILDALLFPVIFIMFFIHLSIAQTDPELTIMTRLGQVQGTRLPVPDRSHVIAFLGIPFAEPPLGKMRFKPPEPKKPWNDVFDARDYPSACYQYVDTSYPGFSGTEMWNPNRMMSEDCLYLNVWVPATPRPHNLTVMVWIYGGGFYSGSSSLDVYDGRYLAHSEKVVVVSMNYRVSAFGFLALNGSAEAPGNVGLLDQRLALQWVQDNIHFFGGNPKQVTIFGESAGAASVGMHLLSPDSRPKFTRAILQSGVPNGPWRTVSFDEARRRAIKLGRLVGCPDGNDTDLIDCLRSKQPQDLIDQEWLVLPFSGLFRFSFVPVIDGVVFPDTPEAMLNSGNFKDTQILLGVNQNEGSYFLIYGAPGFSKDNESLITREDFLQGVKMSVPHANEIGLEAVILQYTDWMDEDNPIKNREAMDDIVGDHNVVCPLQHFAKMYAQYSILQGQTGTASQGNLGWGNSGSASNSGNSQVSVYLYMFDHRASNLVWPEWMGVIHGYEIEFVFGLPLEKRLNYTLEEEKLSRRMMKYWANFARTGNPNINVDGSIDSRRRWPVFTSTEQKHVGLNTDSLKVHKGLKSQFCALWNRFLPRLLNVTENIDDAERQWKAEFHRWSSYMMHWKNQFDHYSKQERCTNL
Cholinesterase, sequence (P81908 whole entry): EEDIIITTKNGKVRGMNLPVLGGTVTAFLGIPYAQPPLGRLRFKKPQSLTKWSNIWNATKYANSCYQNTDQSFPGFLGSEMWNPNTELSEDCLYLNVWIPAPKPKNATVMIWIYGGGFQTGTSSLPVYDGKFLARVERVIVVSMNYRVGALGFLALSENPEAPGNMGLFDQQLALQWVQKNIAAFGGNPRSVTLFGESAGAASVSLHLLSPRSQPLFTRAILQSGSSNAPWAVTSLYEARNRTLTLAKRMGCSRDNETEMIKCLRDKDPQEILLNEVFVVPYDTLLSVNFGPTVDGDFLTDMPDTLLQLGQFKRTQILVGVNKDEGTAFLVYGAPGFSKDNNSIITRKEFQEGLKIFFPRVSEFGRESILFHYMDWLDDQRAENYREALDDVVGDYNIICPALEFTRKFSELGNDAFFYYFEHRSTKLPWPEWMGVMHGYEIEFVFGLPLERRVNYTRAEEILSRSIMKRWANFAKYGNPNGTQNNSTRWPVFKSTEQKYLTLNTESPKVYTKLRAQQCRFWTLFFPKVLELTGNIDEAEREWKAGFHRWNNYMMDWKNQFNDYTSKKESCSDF

O=C1CCN(Cc2ccccc2)C/C1=C\c1c[nH]c2ccccc12
pIC50 (Acetylcholinesterase [1]): 5.10

Cc1nn(-c2ccccc2)c2nc3nc4c(c(N)c3cc12)CCCC4
pIC50 (Acetylcholinesterase [2]): 5.19

CCn1c(=O)n(C)s/c1=N\CCC1CCN(Cc2ccccc2)CC1
pIC50 (Acetylcholinesterase [3]): 6.85

CC(=O)CCCCCCCCCCCC[C@H]1CC[C@@H](OC(C)=O)[C@@H](C)N1
pIC50 (Acetylcholinesterase [4]): 5.14

CC(=O)CCCCCCCCCCCC[C@H]1CC[C@@H](OC(=O)OC(C)(C)C)[C@@H](C)N1
pIC50 (Acetylcholinesterase [4]): 4.82

COc1cc2c3c(c1OC)/C1=C/C[C@H](O)C[C@@H](O)[C@H](O1)[C@@H]3N(C)CC2
pIC50 (Cholinesterase): 4.87 | pIC50 (Acetylcholinesterase [5]): 6.14

CCOC(=O)C1=C(C)Oc2nc3c(c(N)c2C1c1ccc(OC)cc1)CCCC3 (centres undefined)
pIC50 (Acetylcholinesterase [6]): 6.06

CCOC(=O)C1=C(C)Oc2nc3c(c(N)c2C1c1ccc(C)cc1)CCCC3 (centres undefined)
pIC50 (Acetylcholinesterase [6]): 6.74
